From ChEMBL document CHEMBL4825664, “17-Hydroxybrevianamide N and Its N1-Methyl Derivative, Quinazolinones from a Soft-Coral-Derived Aspergillus sp. Fungus: 13S Enantiomers as the True Natural Products” (J Nat Prod, 2021)
Calls of active or inactive are those of the source.

Experiments:
Format in all cases: functional, organism-based
[1] = tested on: Influenza A virus; assay: Antiviral activity against Influenza virus H1N1 at 100 uM
[2] = tested on: Escherichia coli; assay: Antibacterial activity against Escherichia coli at 20 ug/ml; settings: dose 20.0 µg/ml
[3] = tested on: Pseudomonas aeruginosa; assay: Antibacterial activity against Pseudomonas aeruginosa at 20 ug/ml; settings: dose 20.0 µg/ml
[4] = tested on: Staphylococcus aureus; assay: Antibacterial activity against Staphylococcus aureus at 20 ug/ml; settings: dose 20.0 µg/ml
[5] = tested on: Candida albicans; assay: Antifungal activity against Candida albicans at 20 ug/ml; settings: dose 20.0 µg/ml

Measured: Activity

CN1C(=O)c2nc3ccccc3c(=O)n2[C@H](Cc2ccccc2O)C1=O
inactive: [1] | [2] | [3] | [4] | [5]

CN1C(=O)c2nc3ccccc3c(=O)n2[C@@H](Cc2ccccc2O)C1=O
inactive: [1] | [2] | [3] | [4] | [5]

O=C1NC(=O)[C@@H](Cc2ccccc2O)n2c1nc1ccccc1c2=O
inactive: [1] | [2] | [3] | [4] | [5]

O=C1NC(=O)[C@H](Cc2ccccc2O)n2c1nc1ccccc1c2=O
inactive: [1] | [2] | [3] | [4] | [5]
